Among the test systems are HCC-2998 colon; HL-60(TB) leukemia; MDA-MB-231 breast; NCI-H23 lung; NCI-H460 lung; OVCAR-5 ovarian; SK-MEL-28 melanoma; SK-MEL-5 melanoma; SNB-75 CNS; EKVX NSCLC.
Holding throughout (assay): inhibition of tumour cell growth, NCI panel, 48 h

Results on ten compounds are retold here after PubChem BioAssay (NCI).

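Test compounds were applied to cells in 96-well plates for 48 hours at 5 doses. GI50 = concentration required for 50% inhibition of growth. TGI marks complete inhibition of growth.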

With `O=C1/C(=C\c2ccc(Cl)cc2)CN(C(=O)c2ccccc2)C/C1=C\c1ccc(Cl)cc1`, the GI50 in the assay on HCC-2998 colon is 2.03 µM; with HL-60(TB) leukemia it was 6.58 µM; with MDA-MB-231 breast it was 2.47 µM; in the assay with NCI-H23 lung, 3.13 µM; in the assay on NCI-H460 lung it was 5.97 µM; with OVCAR-5 ovarian, 5.24 µM. Besides, the values for the GI50 in the assay with SK-MEL-28 melanoma, in the assay with SK-MEL-5 melanoma and in the assay with SNB-75 CNS were 2.94 µM, 2.39 µM and 3.77 µM, respectively. In addition, the TGI with HCC-2998 colon was 3.97 µM; in the assay on HL-60(TB) leukemia it was 66.2 µM; in the assay with MDA-MB-231 breast, 6.9 µM; in the assay on NCI-H23 lung, 12.5 µM; in the assay with NCI-H460 lung it was over 84.7 µM; with OVCAR-5 ovarian, 43.2 µM. Also, the TGI in the assay on SK-MEL-28 melanoma was 9.68 µM; in the assay on SK-MEL-5 melanoma it was 6.78 µM; in the assay on SNB-75 CNS, over 71.8 µM.
In the case of `O=P1(O)c2ccccc2CSCc2ccccc21`, the TGI with EKVX NSCLC, with HCC-2998 colon, with HL-60(TB) leukemia, in the assay on MDA-MB-231 breast, in the assay with NCI-H23 lung and with NCI-H460 lung was over 100 µM each time. Moreover, the TGI in the assay with OVCAR-5 ovarian, in the assay on SK-MEL-28 melanoma and in the assay on SK-MEL-5 melanoma was over 100 µM each time.
`O=C(O)c1cc(C(=O)C(=O)c2cc(C(=O)O)c(O)c3ccccc23)c2ccccc2c1O`: the TGI with EKVX NSCLC, with HCC-2998 colon, in the assay on MDA-MB-231 breast, with NCI-H23 lung, with NCI-H460 lung and with OVCAR-5 ovarian was over 100 µM each time. The TGI in the assay with SK-MEL-28 melanoma, in the assay on SK-MEL-5 melanoma and in the assay with SNB-75 CNS was over 100 µM in each case.
As for `CCOC(=O)c1c2c(n(Cc3ccccc3)c1C)-c1nc[nH]c1C(=O)C2=O`, the GI50 is 17.8 µM with EKVX NSCLC; 2.61 µM in the assay with HL-60(TB) leukemia; 13.1 µM in the assay with MDA-MB-231 breast; 11.2 µM with NCI-H460 lung; 19.3 µM in the assay with SK-MEL-28 melanoma; 15.9 µM in the assay with SK-MEL-5 melanoma. The GI50 with SNB-75 CNS is 4.13 µM. In addition, the TGI is 32 µM with EKVX NSCLC; 10.3 µM in the assay on HL-60(TB) leukemia; 28.3 µM in the assay on MDA-MB-231 breast; 23.2 µM in the assay with NCI-H460 lung; 34.1 µM in the assay with SK-MEL-28 melanoma; 29.8 µM in the assay on SK-MEL-5 melanoma. Moreover, the TGI in the assay on SNB-75 CNS came out at 16.2 µM.
As to `Cc1cn2c(/C=N/NC3=NCCN3)c(-c3ccc(Cl)c([N+](=O)[O-])c3)nc2s1`, the GI50 is 3.07 µM in the assay with EKVX NSCLC; 2.12 µM in the assay on HCC-2998 colon; 0.778 µM in the assay with MDA-MB-231 breast; 5.62 µM with NCI-H23 lung; 2.34 µM with NCI-H460 lung; 6.75 µM in the assay on OVCAR-5 ovarian. In the assay with SK-MEL-5 melanoma, the GI50 was 0.989 µM. Further, the TGI was 10.8 µM in the assay with EKVX NSCLC; over 50 µM in the assay on HCC-2998 colon; 1.57 µM with MDA-MB-231 breast; 27 µM in the assay with NCI-H23 lung; over 50 µM with NCI-H460 lung; 17.2 µM with OVCAR-5 ovarian. For the same compound, the TGI in the assay with SK-MEL-5 melanoma was 2.3 µM.
In the case of `C#CCOCCCC(=O)O`, the TGI in the assay with EKVX NSCLC, in the assay on HL-60(TB) leukemia, in the assay on MDA-MB-231 breast, with NCI-H23 lung, in the assay on NCI-H460 lung and in the assay on OVCAR-5 ovarian was over 100 µM throughout. For the same compound, the TGI with SK-MEL-28 melanoma, in the assay on SK-MEL-5 melanoma and in the assay on SNB-75 CNS was over 100 µM throughout.
Turning to `CCCC(c1cc(C(C)(C)C)c(O)cc1C)c1cc(C(C)(C)C)c(O)cc1C`, the TGI was 7.75 µM with EKVX NSCLC; 3.3 µM in the assay on HCC-2998 colon; 4.94 µM with HL-60(TB) leukemia; 9.57 µM in the assay with MDA-MB-231 breast; 6.24 µM in the assay with NCI-H23 lung; 3.92 µM in the assay on NCI-H460 lung. For the same compound, the TGI in the assay on OVCAR-5 ovarian is 4.54 µM; in the assay with SK-MEL-28 melanoma it was 12.4 µM; in the assay with SK-MEL-5 melanoma, 3.26 µM.
In the case of `O=C(O)c1ccc(NCn2nc(-c3ccccc3O)oc2=S)cc1O`, the GI50 with EKVX NSCLC was over 100 µM; with HCC-2998 colon, over 100 µM; in the assay with HL-60(TB) leukemia, over 100 µM; in the assay with MDA-MB-231 breast, 38.9 µM; in the assay on NCI-H23 lung, over 100 µM; in the assay with NCI-H460 lung, 95.6 µM. Further, the GI50 in the assay on OVCAR-5 ovarian, in the assay with SK-MEL-28 melanoma and with SK-MEL-5 melanoma was over 100 µM each time. Further, the TGI in the assay on EKVX NSCLC, in the assay on HCC-2998 colon, in the assay on HL-60(TB) leukemia, with MDA-MB-231 breast, with NCI-H23 lung and in the assay with NCI-H460 lung was over 100 µM each time. Moreover, the TGI in the assay with OVCAR-5 ovarian, in the assay with SK-MEL-28 melanoma and in the assay with SK-MEL-5 melanoma was over 100 µM each time.
As for `Fc1ccc(-c2nn3c(COc4ccccc4Cl)nnc3s2)cc1Oc1ccccc1`, the GI50 was 49 µM in the assay with EKVX NSCLC; 28.6 µM in the assay on HCC-2998 colon; 17.8 µM in the assay with MDA-MB-231 breast; 21.2 µM with NCI-H23 lung; 42.6 µM with NCI-H460 lung; 33.2 µM in the assay with OVCAR-5 ovarian. Besides, the GI50 in the assay with SK-MEL-28 melanoma is 54.6 µM; in the assay on SK-MEL-5 melanoma, 53.3 µM; in the assay on SNB-75 CNS, 30.7 µM. Further, the TGI in the assay with EKVX NSCLC was over 100 µM; in the assay with HCC-2998 colon, 77.4 µM; with MDA-MB-231 breast, 45.6 µM; in the assay on NCI-H23 lung, 43.9 µM; with NCI-H460 lung it was over 100 µM; in the assay on OVCAR-5 ovarian, 92.7 µM. The TGI with SK-MEL-28 melanoma was over 100 µM; with SK-MEL-5 melanoma, over 100 µM; with SNB-75 CNS it was 93.7 µM.
Regarding `CCOC(=O)Nc1ccc2c3c(cccc13)-c1ccccc1-2`, the GI50 with EKVX NSCLC was 2.18 µM; in the assay on HCC-2998 colon it was 9.56 µM; in the assay on MDA-MB-231 breast, 2.58 µM; with NCI-H23 lung, 98.1 µM; with NCI-H460 lung, 3.99 µM; in the assay with OVCAR-5 ovarian, over 100 µM. The GI50 in the assay with SK-MEL-28 melanoma was 10.7 µM; with SK-MEL-5 melanoma, 3.96 µM; in the assay with SNB-75 CNS it was 8.97 µM. The TGI with EKVX NSCLC, with HCC-2998 colon, in the assay on MDA-MB-231 breast, in the assay on NCI-H23 lung, in the assay on NCI-H460 lung and with OVCAR-5 ovarian was over 100 µM in each case. For the same compound, the TGI in the assay with SK-MEL-28 melanoma, with SK-MEL-5 melanoma and in the assay on SNB-75 CNS was over 100 µM throughout.
